Test system: IGROV1 complex spheroids (HUVEC, MSC), viability % test/control
Experiment: Anticancer human tumor IGROV1 cell line growth inhibition [GQUAD];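 further: spheroids exposed to compounds for 7 days before readout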;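 on viability, T/C: 100% = DMSO vehicle control viability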
Conditions: for IC50: curve of first compound; for viability, T/C: stronger effect = lower value
How it was run: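 Multi-cell-type spheroids of tumor cells with HUVEC and mesenchymal stem cells, treated with drug combinations. Concentrations descend in half-log steps from near clinical Cmax, or from 10 microM where Cmax is unknown; viability read-out.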

[1] = second compound 0.0316 µM, first compound 0.0316 µM
[2] = second compound 0.0316 µM, first compound 0.1 µM
[3] = second compound 0.0316 µM, first compound 0.316 µM
[4] = second compound 0.0316 µM, first compound 1 µM
[5] = second compound 0.0316 µM, first compound 3.16 µM
[6] = second compound 0.0316 µM, first compound 10 µM
[7] = second compound 0.1 µM, first compound 0.0316 µM
[8] = second compound 0.1 µM, first compound 0.1 µM
[9] = second compound 0.1 µM, first compound 0.316 µM
[10] = second compound 0.1 µM, first compound 1 µM
[11] = second compound 0.1 µM, first compound 3.16 µM
[12] = second compound 0.1 µM, first compound 10 µM
[13] = second compound 0.316 µM, first compound 0.0316 µM
[14] = second compound 0.316 µM, first compound 0.1 µM
[15] = second compound 0.316 µM, first compound 0.316 µM
[16] = second compound 0.316 µM, first compound 1 µM
[17] = second compound 0.316 µM, first compound 3.16 µM
[18] = second compound 0.316 µM, first compound 10 µM
[19] = second compound 1 µM, first compound 0.0316 µM
[20] = second compound 1 µM, first compound 0.1 µM
[21] = second compound 1 µM, first compound 0.316 µM
[22] = second compound 1 µM, first compound 1 µM
[23] = second compound 1 µM, first compound 3.16 µM
[24] = second compound 1 µM, first compound 10 µM
[25] = second compound 3.16 µM, first compound 0.0316 µM
[26] = second compound 3.16 µM, first compound 0.1 µM
[27] = second compound 3.16 µM, first compound 0.316 µM
[28] = second compound 3.16 µM, first compound 1 µM
[29] = second compound 3.16 µM, first compound 3.16 µM
[30] = second compound 3.16 µM, first compound 10 µM
[31] = second compound 10 µM, first compound 0.0316 µM
[32] = second compound 10 µM, first compound 0.1 µM
[33] = second compound 10 µM, first compound 0.316 µM
[34] = second compound 10 µM, first compound 1 µM
[35] = second compound 10 µM, first compound 3.16 µM
[36] = second compound 10 µM, first compound 10 µM

COc1cc(C2c3cc4c(cc3C(OC3OC5COC(C)OC5C(O)C3O)C3COC(=O)C23)OCO4)cc(OC)c1O (stereo unspecified) + Cc1[nH]c2ccc(F)cc2c1-c1nc2c3cccnc3c3ncccc3c2[nH]1
IC50 (second compound 0.0316 µM): 99.2 nM | IC50 (second compound 0.1 µM): 110 nM | IC50 (second compound 0.316 µM): 75.3 nM | IC50 (second compound 1 µM): < 31.6 nM | IC50 (second compound 3.16 µM): < 31.6 nM | IC50 (second compound 10 µM): < 31.6 nM | viability, T/C [1]: 87.7% | viability, T/C [2]: 49.2% | viability, T/C [3]: 26.8% | viability, T/C [4]: 9.94% | viability, T/C [5]: 10.6% | viability, T/C [6]: 5.84% | viability, T/C [7]: 89.3% | viability, T/C [8]: 52.3% | viability, T/C [9]: 25.4% | viability, T/C [10]: 12% | viability, T/C [11]: 9.69% | viability, T/C [12]: 6.24% | viability, T/C [13]: 68.3% | viability, T/C [14]: 44% | viability, T/C [15]: 23.7% | viability, T/C [16]: 11.6% | viability, T/C [17]: 7.51% | viability, T/C [18]: 4.85% | viability, T/C [19]: 4.67% | viability, T/C [20]: 4.98% | viability, T/C [21]: 4.59% | viability, T/C [22]: 5.09% | viability, T/C [23]: 4.85% | viability, T/C [24]: 3.15% | viability, T/C [25]: 4.03% | viability, T/C [26]: 5.21% | viability, T/C [27]: 3.82% | viability, T/C [28]: 5.26% | viability, T/C [29]: 4.55% | viability, T/C [30]: 3.18% | viability, T/C [31]: 4.92% | viability, T/C [32]: 4.45% | viability, T/C [33]: 4.88% | viability, T/C [34]: 4.78% | viability, T/C [35]: 4.32% | viability, T/C [36]: 4.34%

Cc1[nH]c2ccccc2c1CCNCc1ccc(/C=C/C(=O)NO)cc1 + Cc1[nH]c2ccc(F)cc2c1-c1nc2c3cccnc3c3ncccc3c2[nH]1
IC50 (second compound 0.0316 µM): 22.8 nM | IC50 (second compound 0.1 µM): 17.6 nM | IC50 (second compound 0.316 µM): 10.6 nM | IC50 (second compound 1 µM): < 0.999 nM | IC50 (second compound 3.16 µM): < 0.999 nM | IC50 (second compound 10 µM): < 0.999 nM | viability, T/C (second compound 0.0316 µM, first compound 0.000999 µM): 107% | viability, T/C (second compound 0.0316 µM, first compound 0.00316 µM): 88.2% | viability, T/C (second compound 0.0316 µM, first compound 0.00999 µM): 80% | viability, T/C [1]: 40.3% | viability, T/C (second compound 0.0316 µM, first compound 0.0999 µM): 4.14% | viability, T/C [3]: 0.24% | viability, T/C (second compound 0.1 µM, first compound 0.000999 µM): 91.8% | viability, T/C (second compound 0.1 µM, first compound 0.00316 µM): 102% | viability, T/C (second compound 0.1 µM, first compound 0.00999 µM): 64.4% | viability, T/C [7]: 32.3% | viability, T/C (second compound 0.1 µM, first compound 0.0999 µM): 5.9% | viability, T/C [9]: 0.36% | viability, T/C (second compound 0.316 µM, first compound 0.000999 µM): 61.7% | viability, T/C (second compound 0.316 µM, first compound 0.00316 µM): 67.6% | viability, T/C (second compound 0.316 µM, first compound 0.00999 µM): 48.2% | viability, T/C [13]: 28.6% | viability, T/C (second compound 0.316 µM, first compound 0.0999 µM): 5.96% | viability, T/C [15]: 0.21% | viability, T/C (second compound 1 µM, first compound 0.000999 µM): 3.99% | viability, T/C (second compound 1 µM, first compound 0.00316 µM): 3.36% | viability, T/C (second compound 1 µM, first compound 0.00999 µM): 2.02% | viability, T/C [19]: 2.26% | viability, T/C (second compound 1 µM, first compound 0.0999 µM): 2.15% | viability, T/C [21]: 0.14% | viability, T/C (second compound 3.16 µM, first compound 0.000999 µM): 2.38% | viability, T/C (second compound 3.16 µM, first compound 0.00316 µM): 2.86% | viability, T/C (second compound 3.16 µM, first compound 0.00999 µM): 1.81% | viability, T/C [25]: 1.14% | viability, T/C (second compound 3.16 µM, first compound 0.0999 µM): 0.49% | viability, T/C [27]: 0.09% | viability, T/C (second compound 10 µM, first compound 0.000999 µM): 3.6% | viability, T/C (second compound 10 µM, first compound 0.00316 µM): 3.82% | viability, T/C (second compound 10 µM, first compound 0.00999 µM): 2.17% | viability, T/C [31]: 1.25% | viability, T/C (second compound 10 µM, first compound 0.0999 µM): 0.54% | viability, T/C [33]: 0.17%

O=c1[nH]cc(F)c(=O)[nH]1 + Cc1[nH]c2ccc(F)cc2c1-c1nc2c3cccnc3c3ncccc3c2[nH]1
IC50 (second compound 0.0316 µM): 6750 nM | IC50 (second compound 0.1 µM): 5500 nM | IC50 (second compound 0.316 µM): 4000 nM | IC50 (second compound 1 µM): < 31.6 nM | IC50 (second compound 3.16 µM): < 31.6 nM | IC50 (second compound 10 µM): < 31.6 nM | viability, T/C [1]: 104% | viability, T/C [2]: 83.6% | viability, T/C [3]: 103% | viability, T/C [4]: 80.3% | viability, T/C [5]: 82.6% | viability, T/C [6]: 34.5% | viability, T/C [7]: 96.1% | viability, T/C [8]: 104% | viability, T/C [9]: 84% | viability, T/C [10]: 69.5% | viability, T/C [11]: 80.8% | viability, T/C [12]: 27.8% | viability, T/C [13]: 79.6% | viability, T/C [14]: 67.5% | viability, T/C [15]: 77.1% | viability, T/C [16]: 70.8% | viability, T/C [17]: 55.4% | viability, T/C [18]: 24.3% | viability, T/C [19]: 5.37% | viability, T/C [20]: 4.95% | viability, T/C [21]: 4.49% | viability, T/C [22]: 4.87% | viability, T/C [23]: 5.05% | viability, T/C [24]: 5.26% | viability, T/C [25]: 4.5% | viability, T/C [26]: 4.46% | viability, T/C [27]: 5.38% | viability, T/C [28]: 4.48% | viability, T/C [29]: 5.61% | viability, T/C [30]: 4.44% | viability, T/C [31]: 4.32% | viability, T/C [32]: 4.75% | viability, T/C [33]: 4.71% | viability, T/C [34]: 4.66% | viability, T/C [35]: 4.72% | viability, T/C [36]: 5.12%
